Assay results reported in US9573957B2 (Boehringer Ingelheim International GmbH, priority 2013, dated 2017).

What was measured:
human LTA4 hydrolase = human LTA4 hydrolase (Homo sapiens (Human), UniProt P09960); assay: LTA4H Enzyme assay (peptidase, Arg-AMC cleavage); format: biochemical; conditions: LTA4H Enzyme 1 nM, Arg-AMC substrate 50 μM, room temperature 1 h, fluorescence
Procedure: The compounds of the invention are assessed for the ability to interact with human LTA4 hydrolase in an enzymatic assay that measures the ability of the enzyme to cleave the peptide bond of arginyl-aminomethylcoumarin (Arg-AMC). LTA4H Enzyme (1 nM final), Arg-AMC substrate (50 μM final), and compound are combined in a reaction buffer (50 mM Tris-HCl (pH 7.5), 100 mM KCl, 0.5% bovine serum albumin) at room temperature for 1 h. The formation of product is assessed by measuring the fluorescence of aminomethylcoumarin product (excitation wavelength 380 nm/emission wavelength 460 nm).

[1] = system: synthesis of LTB4 in human whole blood; assay: LTB4 production inhibition assay in human whole blood (HWB); format: cell-based; conditions: heparinized human whole blood, 15 min at 37° C., Calcimycin 20 μM 30 min, plasma LTB4 by HTRF
Procedure: The compounds of the invention are additionally tested in a human whole blood (HWB) assay to determine their ability to inhibit the synthesis of LTB4 in a cellular system. Compounds are combined with heparinized human whole blood and incubated for 15 minutes at 37° C. Calcimycin (20 μM final, prepared in phosphate-buffered saline, pH 7.4) is then added and the mixture is incubated for another 30 minutes at 37° C. The samples are centrifuged for 5 min at low speed (1500×g) and the plasma layer is removed. Plasma LTB4 concentrations are then measured using an antibody-based homogenous time-resolved fluorescence method (CisBio, Bedford, Mass.).

Chain of human LTA4 hydrolase (P09960 whole entry): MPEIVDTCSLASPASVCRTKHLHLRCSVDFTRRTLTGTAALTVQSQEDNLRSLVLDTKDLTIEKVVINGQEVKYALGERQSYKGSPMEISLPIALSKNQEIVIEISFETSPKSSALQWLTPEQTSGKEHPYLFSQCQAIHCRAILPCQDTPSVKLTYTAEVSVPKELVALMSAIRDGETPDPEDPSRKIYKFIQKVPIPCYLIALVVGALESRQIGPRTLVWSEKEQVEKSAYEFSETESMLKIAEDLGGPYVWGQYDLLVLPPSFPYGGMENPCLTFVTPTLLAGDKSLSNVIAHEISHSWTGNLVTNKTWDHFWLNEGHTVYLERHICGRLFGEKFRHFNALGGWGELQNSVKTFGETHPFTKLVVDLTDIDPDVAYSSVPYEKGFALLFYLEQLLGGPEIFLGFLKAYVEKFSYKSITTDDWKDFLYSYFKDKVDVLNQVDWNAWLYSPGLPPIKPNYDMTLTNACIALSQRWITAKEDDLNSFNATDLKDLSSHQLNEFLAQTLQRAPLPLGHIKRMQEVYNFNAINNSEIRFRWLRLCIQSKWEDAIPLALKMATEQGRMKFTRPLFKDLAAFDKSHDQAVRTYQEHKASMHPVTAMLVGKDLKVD

Structure (SMILES) | IC50 (human LTA4 hydrolase) [nM] | IC50 [1] [nM]
N#CC1(C(=O)N2CCN(Cc3ccc4cc(Oc5ccc(-c6ccn[nH]6)cn5)ccc4n3)CC2)CC1 [Example 116, 1-(4-{6-[5-(2H-Pyrazol-3-yl)-pyridin-2-yloxy]-quinolin-2-ylmethyl}-piperazine-1-carbonyl)-cyclopropanecarbonitrile] | 0.87 | 240
O[C@@H]1CCCN(Cc2ccc3cc(Oc4ccc(-c5ccn[nH]5)cn4)ccc3c2)C1 [Example 15, (R)-1-{6-[5-(2H-Pyrazol-3-yl)-pyridin-2-yloxy]-naphthalen-2-ylmethyl}-piperidin-3-ol] | 1 | 190
CN(Cc1ccc2cc(Oc3ccc(-c4ccn[nH]4)cn3)ccc2c1)[C@H]1CCN(C(=O)CO)C1 [Example 23, 2-Hydroxy-1-[(S)-3-(methyl-{6-[5-(2H-pyrazol-3-yl)-pyridin-2-yloxy]-naphthalen-2-ylmethyl}-amino)-pyrrolidin-1-yl]-ethanone] | 0.9 | 170
OC1CC2(C1)CN(Cc1ccc3cc(Oc4ccc(-c5ccn[nH]5)cn4)ccc3c1)C2 [Example 10, 2-{6-[5-(2H-Pyrazol-3-yl)-pyridin-2-yloxy]-naphthalen-2-ylmethyl}-2-aza-spiro[3.3]heptan-6-ol] | 0.48 | 150
C[C@@H](O)C(=O)N1CCN(CCc2coc3cc(Oc4ccc(-c5ccn[nH]5)cn4)ccc23)CC1 [Example 92, (R)-2-Hydroxy-1-[4-(2-{6-[5-(2H-pyrazol-3-yl)-pyridin-2-yloxy]-benzofuran-3-yl}-ethyl)-piperazin-1-yl]-propan-1-one] | 1.1 | 470
CS(=O)(=O)N1CCN(CCc2coc3cc(Oc4ccc(-c5ccn[nH]5)cn4)ccc23)CC1 [Example 74, 1-Methanesulfonyl-4-(2-{6-[5-(2H-pyrazol-3-yl)-pyridin-2-yloxy]-benzofuran-3-yl}-ethyl)-piperazine] | 1.4 | 350
CN(C(=O)CO)[C@H]1CCN(Cc2ccc3cc(Oc4ccc(-c5ccn[nH]5)cn4)ccc3c2)C1 [Example 20, 2-Hydroxy-N-methyl-N-((S)-1-{6-[5-(2H-pyrazol-3-yl)-pyridin-2-yloxy]-naphthalen-2-ylmethyl}-pyrrolidin-3-yl)-acetamide] | 0.76 | 150
C[C@H](O)C(=O)N1CC2CCC(C1)N2Cc1ccc2cc(Oc3ccc(-c4ccn[nH]4)cn3)ccc2n1 [Example 57, (S)-2-Hydroxy-1-(8-{6-[5-(2H-pyrazol-3-yl)-pyridin-2-yloxy]-quinolin-2-ylmethyl}-3,8-diaza-bicyclo[3.2.1]oct-3-yl)-propan-1-one] | 0.43 | 98
O=C(CO)N1CCN(CCc2coc3cc(Oc4ccc(-c5ccn[nH]5)cn4)ccc23)CC1 [Example 82, 2-Hydroxy-1-[4-(2-{6-[5-(2H-pyrazol-3-yl)-pyridin-2-yloxy]-benzofuran-3-yl}-ethyl)-piperazin-1-yl]-ethanone] | 1.3 | 410
O=C1CCCN1C1CCN(Cc2ccc3cc(Oc4ncc(-c5ccn[nH]5)cn4)ccc3c2)CC1 [Example 36, 1-(1-{6-[5-(2H-Pyrazol-3-yl)-pyrimidin-2-yloxy]-naphthalen-2-ylmethyl}-piperidin-4-yl)-pyrrolidin-2-one] | 1.9 | 220
CC(=O)NC1CCN(Cc2ccc3cc(Oc4ncc(-c5ccn[nH]5)cn4)ccc3c2)CC1 [Example 28, N-(1-{6-[5-(2H-Pyrazol-3-yl)-pyrimidin-2-yloxy]-naphthalen-2-ylmethyl}-piperidin-4-yl)-acetamide] | 1.8 | 270
O=C(C1CC1)N1CCN(Cc2ccc3cc(Oc4ncc(-c5ccn[nH]5)cn4)ccc3c2)CC1 [Example 40, Cyclopropyl-(4-{6-[5-(2H-pyrazol-3-yl)-pyrimidin-2-yloxy]-naphthalen-2-ylmethyl}-piperazin-1-yl)-methanone] | 1.8 | 340

Further compounds by falling IC50 (human LTA4 hydrolase), results first:

IC50 (human LTA4 hydrolase) [nM] | IC50 [1] [nM] | Structure (SMILES)
3.1 | 410 | CC[C@@H](O)C(=O)N1CCN(Cc2ccc3cc(Oc4ccc(-c5ccn[nH]5)cn4)ccc3n2)CC1 [Example 134, (R)-2-Hydroxy-1-(4-{6-[5-(2H-pyrazol-3-yl)-pyridin-2-yloxy]-quinolin-2-ylmethyl}-piperazin-1-yl)-butan-1-one]
3 | 500 | O=C(C1CC(O)C1)N1CCN(Cc2ccc3cc(Oc4ccc(-c5ccn[nH]5)cn4)ccc3n2)CC1 (centres unmarked) [Example 139, (3-Hydroxy-cyclobutyl)-(4-{6-[5-(2H-pyrazol-3-yl)-pyridin-2-yloxy]-quinolin-2-ylmethyl}-piperazin-1-yl)-methanone]
2.5 | 230 | O[C@H]1CCN(Cc2ccc3cc(Oc4ncc(-c5ccn[nH]5)cn4)ccc3c2)C1 [Example 46, (S)-1-{6-[5-(2H-Pyrazol-3-yl)-pyrimidin-2-yloxy]-naphthalen-2-ylmethyl}-pyrrolidin-3-ol]
2.2 | 320 | CC(C)(O)C(=O)N1CCN(Cc2ccc3cc(Oc4ncc(-c5ccn[nH]5)cn4)ccc3c2)CC1 [Example 39, 2-Hydroxy-2-methyl-1-(4-{6-[5-(2H-pyrazol-3-yl)-pyrimidin-2-yloxy]-naphthalen-2-ylmethyl}-piperazin-1-yl)-propan-1-one]
1.9 | 210 | CC1(O)CN(Cc2ccc3cc(Oc4ncc(-c5ccn[nH]5)cn4)ccc3c2)C1 [Example 47, 3-Methyl-1-{6-[5-(2H-pyrazol-3-yl)-pyrimidin-2-yloxy]-naphthalen-2-ylmethyl}-azetidin-3-ol]
1.8 | 580 | O=C(N1CCN(Cc2ccc3cc(Oc4ccc(-c5ccn[nH]5)cn4)ccc3n2)CC1)C1(O)CCC1 [Example 143, (1-Hydroxy-cyclobutyl)-(4-{6-[5-(2H-pyrazol-3-yl)-pyridin-2-yloxy]-quinolin-2-ylmethyl}-piperazin-1-yl)-methanone]
1.7 | 360 | CO[C@H](C)C(=O)N1CCN(CCC2COc3cc(Oc4ccc(-c5ccn[nH]5)cn4)ccc32)CC1 (stereo partly drawn) [Example 76, (R)-2-Methoxy-1-[4-(2-{6-[5-(2H-pyrazol-3-yl)-pyridin-2-yloxy]-2,3-dihydro-benzofuran-3-yl}-ethyl)-piperazin-1-yl]-propan-1-one]
1.2 | 410 | CO[C@@H](C)C(=O)N1CCN(CCC2COc3cc(Oc4ccc(-c5ccn[nH]5)cn4)ccc32)CC1 (stereo partly drawn) [Example 88, (S)-2-Methoxy-1-[4-(2-{6-[5-(2H-pyrazol-3-yl)-pyridin-2-yloxy]-2,3-dihydro-benzofuran-3-yl}-ethyl)-piperazin-1-yl]-propan-1-one]
0.95 | 150 | O=C1CCCN1C1CCN(C[C@@H]2Cc3ccc(Oc4ccc(-c5ccn[nH]5)cn4)cc3O2)CC1 [Example 64, 1-(1-{(S)-6-[5-(2H-Pyrazol-3-yl)-pyridin-2-yloxy]-2,3-dihydro-benzofuran-2-ylmethyl}-piperidin-4-yl)-pyrrolidin-2-one]
0.88 | 200 | C[C@@H](O)C(=O)N1CCN(Cc2ccc3cc(Oc4ccc(-c5ccn[nH]5)cn4)ccc3n2)CC1 [Example 123, (R)-2-Hydroxy-1-(4-{6-[5-(2H-pyrazol-3-yl)-pyridin-2-yloxy]-quinolin-2-ylmethyl}-piperazin-1-yl)-propan-1-one]
0.86 | 230 | O=C1[C@@H](O)CCN1C1CCN(Cc2ccc3cc(Oc4ccc(-c5ccn[nH]5)cn4)ccc3n2)CC1 [Example 8, (S)-3-Hydroxy-1-(1-{6-[5-(2H-pyrazol-3-yl)-pyridin-2-yloxy]-quinolin-2-ylmethyl}-piperidin-4-yl)-pyrrolidin-2-one]
0.73 | 220 | O=C1[C@@H](O)CCN1C1CCN(CCc2coc3cc(Oc4ccc(-c5ccn[nH]5)cn4)ccc23)CC1 [Example 73, (S)-3-Hydroxy-1-[1-(2-{6-[5-(2H-pyrazol-3-yl)-pyridin-2-yloxy]-benzofuran-3-yl}-ethyl)-piperidin-4-yl]-pyrrolidin-2-one]
0.58 | 210 | CC(=O)N1CCCN(Cc2coc3cc(Oc4ccc(-c5ccn[nH]5)cn4)ccc23)CC1 [Example 97, 1-(4-{6-[5-(2H-Pyrazol-3-yl)-pyridin-2-yloxy]-benzofuran-3-ylmethyl}-[1,4]diazepan-1-yl)-ethanone]
0.5 | 170 | O=C(CO)NC1CCN(Cc2ccc3cc(Oc4ccc(-c5ccn[nH]5)cn4)ccc3c2)CC1 [Example 9, 2-Hydroxy-N-(1-{6-[5-(2H-pyrazol-3-yl)-pyridin-2-yloxy]-naphthalen-2-ylmethyl}-piperidin-4-yl)-acetamide]
0.49 | 170 | CNC(=O)C1CCN(Cc2coc3cc(Oc4ccc(-c5ccn[nH]5)cn4)ccc23)CC1 [Example 103, 1-{6-[5-(2H-Pyrazol-3-yl)-pyridin-2-yloxy]-benzofuran-3-ylmethyl}-piperidine-4-carboxylic acid methylamide]
0.48 | 160 | OCC1CN(Cc2ccc3cc(Oc4ccc(-c5ccn[nH]5)cn4)ccc3c2)C1 [Example 4, (1-{6-[5-(2H-Pyrazol-3-yl)-pyridin-2-yloxy]-naphthalen-2-ylmethyl}-azetidin-3-yl)-methanol]
